Results from ChEMBL document CHEMBL1141020, “Anthranilimide-based glycogen phosphorylase inhibitors for the treatment of type 2 diabetes: 1. Identification of 1-amino-1-cycloalkyl carboxylic acid headgroups” (Bioorg Med Chem Lett, 2009).

Tests used:
[1] = Volume of distribution at steady state in Sprague-Dawley rat at 10 mg/kg, po or 2.5 mg/kg, iv; assay type: ADME, organism-based; conditions: in vivo, read-out: Vdss
[2] = Oral bioavailability in Sprague-Dawley rat at 10 mg/kg; assay type: ADME, organism-based; conditions: in vivo
[3] = Clearance in Sprague-Dawley rat at 10 mg/kg, po or 2.5 mg/kg, iv; assay type: ADME, organism-based; conditions: in vivo
[4] = AUC (0 to infinity) in Sprague-Dawley rat at 1 mg/kg, po; assay type: ADME, organism-based; set-up: time infinity, dose 1 mg/kg, route oral; conditions: plasma
[5] = Half life in Sprague-Dawley rat at 10 mg/kg, po; assay type: ADME, organism-based; set-up: dose 10 mg/kg, route oral; conditions: in vivo
[6] = Metabolic stability in rat liver microsomes assessed as half life; assay type: ADME, Microsome
[7] = Half life in Beagle dog at 5 mg/kg, po; assay type: ADME, organism-based, Canis lupus familiaris; set-up: dose 5 mg/kg, route oral; conditions: in vivo
[8] = Clearance in Beagle dog at 5 mg/kg, po or 1 mg/kg, iv; assay type: ADME, organism-based, Canis lupus familiaris; conditions: in vivo
[9] = Oral bioavailability in Beagle dog at 5 mg/kg; assay type: ADME, organism-based, Canis lupus familiaris; conditions: in vivo
[10] = Volume of distribution at steady state in Beagle dog at 5 mg/kg, po or 1 mg/kg, iv; assay type: ADME, organism-based, Canis lupus familiaris; conditions: in vivo, read-out: Vdss
[11] = AUC (0 to infinity) in Beagle dog at 1 mg/kg, po; assay type: ADME, organism-based, Canis lupus familiaris; set-up: time infinity, dose 1 mg/kg, route oral; conditions: plasma

Vd [1] | bioavailability [2] | clearance [3] | AUC(0-inf) [4] | half-life [5] | half-life [6] | half-life [7] | clearance [8] | bioavailability [9] | Vd [10] | AUC(0-inf) [11] | SMILES
0.3 L/kg | 37% | 7.5 mL/min/kg | 1720 ng·h/mL | 246 min | – | – | – | – | – | – | Cc1cc(C)c(NC(=O)Nc2cc3ccccc3cc2C(=O)N[C@](C)(C(=O)O)C2CCCCC2)c(C)c1
– | – | – | – | – | < 15 min | – | – | – | – | – | Cc1cc(C)c(NC(=O)Nc2cc3ccccc3cc2C(=O)N[C@H](C(=O)O)C2CCCCC2)c(C)c1
0.28 L/kg | 28% | 1.1 mL/min/kg | 4380 ng·h/mL | 324 min | – | 240 min | 13 mL/min/kg | 45% | 0.5 L/kg | 620 ng·h/mL | Cc1cc(C)c(NC(=O)Nc2cc3ccccc3cc2C(=O)NC2(C(=O)O)CCCCCCC2)c(C)c1
